Experimental data reported in PubChem BioAssay (NCI).
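Tested at 5 concentrations; 48 h exposure; 96-well plates; endpoints linearly interpolated, else capped at highest concentration. GI50 = concentration required for 50% inhibition of growth. TGI marks complete inhibition of growth.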

Experiments:
Experiment in all cases: NCI tumour cell line growth inhibition, 48 h
MDA-N = tested on: MDA-N
XF 498 CNS = tested on: XF 498 CNS
DMS 114 small cell lung = tested on: DMS 114 small cell lung
HOP-18 NSCLC = tested on: HOP-18 NSCLC
LXFL 529 NSCLC = tested on: LXFL 529 NSCLC
M19-MEL melanoma = tested on: M19-MEL melanoma
KM20L2 colon = tested on: KM20L2 colon
DLD-1 colon = tested on: DLD-1 colon
RXF-631 renal = tested on: RXF-631 renal

SMILES	TGI (MDA-N) [µM]	TGI (XF 498 CNS) [µM]	TGI (DMS 114 small cell lung) [µM]	TGI (HOP-18 NSCLC) [µM]	TGI (LXFL 529 NSCLC) [µM]	TGI (M19-MEL melanoma) [µM]	TGI (KM20L2 colon) [µM]	TGI (DLD-1 colon) [µM]	TGI (RXF-631 renal) [µM]	GI50 (DMS 114 small cell lung) [µM]
CC1(C)C(=O)C=CC2(C)C1CC(O)C1(C)C2CCC2(C)C(c3ccoc3)OC(=O)C3OC321 (stereo not given)	41.8	–	–	–	–	–	–	–	–	–
C[C@]12CC[C@H]3[C@@H](CC[C@]4(O)C[C@@H](O)CC[C@]34CO)[C@@]1(O)CC[C@@H]2C1=CC(=O)OC1	14.4	–	–	–	–	–	–	–	–	–
CCCCCCCCCCCCCC(=O)NCC(OCC)OCC	–	> 100	> 100	> 100	> 100	> 100	> 100	> 100	–	–
Cc1cccc(N=C2NC(=O)C(CC(=O)Nc3ccc(C)cc3C)S2)c1 (stereo not given)	–	> 100	> 100	–	> 100	> 100	> 100	> 100	–	–
O=C1C(Cl)=C(c2ccc([N+](=O)[O-])cc2)C(=O)c2c(O)cccc21	6.53	1.95	0.786	2.04	0.94	3.52	–	2.55	–	–
COC(=O)C1Cc2c([nH]c3ccccc23)C(c2ccccc2O)N1Cc1ccccc1 (stereo not given)	–	–	> 31.6	> 46.4	43.9	> 46.4	> 46.4	> 100	45.3	–
NNS(=O)(=O)c1cc(C(=O)O)cc(C(=O)O)c1	> 100	–	–	–	–	–	–	–	–	–
CC1=C(/C=C/C(C)=C/C=C/C(C)=C/C=C/C=C(C)/C=C/C=C(C)/C=C/C2=C(C)C(=O)C(O)CC2(C)C)C(C)(C)CC(O)C1=O (stereo not given)	–	–	> 100	> 100	–	> 100	> 100	> 100	> 100	–
COc1cc(C2c3cc4c(cc3[C@@H](OCCN(C)C)C3COC(=O)[C@H]23)OCO4)cc(OC)c1O (stereo not given in full)	–	1.74	–	4.36	31.7	3.17	5.14	5.93	1.78	–
Cc1c(C(=O)CC(=O)C(=O)Nc2cc(Cl)ccc2Cl)[n+](=O)c2ccccc2n1[O-]	–	> 100	61.3	> 100	> 100	59.1	> 100	–	–	–
O=c1cc(-c2ccccn2)[nH]c2cc(F)ccc12	–	–	> 100	> 100	> 100	> 100	> 100	> 100	> 100	52.4
N#Cc1c(C[n+]2ccccc2)c2ccccc2oc1=O	–	> 100	> 100	–	> 100	> 100	> 100	> 100	–	–
S=P(N1CCCC1)(N1CC1)N1CC1	–	> 100	> 100	> 100	–	> 100	> 100	> 100	–	–
COc1ccccc1NC(=O)C1=C(C)NC(C)=C(C(=O)Nc2ccccc2OC)C1c1ccc(N(C)C)cc1	–	57.1	65.6	–	> 100	> 100	96.8	55.1	–	–
Nc1nc(N)nc(CC(=O)O)n1	> 100	–	–	–	–	–	–	–	–	–
COc1cc(C2c3cc4c(cc3[C@@H](N(C)C)[C@H]3COC(=O)C23)OCO4)cc(OC)c1O (stereo not given in full)	–	> 100	–	–	> 100	–	54.1	> 100	> 100	–
Cc1cc(=O)oc2cc(OC(=O)N(CCCl)CCCl)ccc12	> 100	–	–	–	–	–	–	–	–	–
COC(=O)c1ccc(C(=O)OC)c2nc3cc(C)ccc3nc12	–	> 100	> 100	> 100	> 100	–	> 100	> 100	> 100	–
Clc1ccc2ns[s+]c2c1	> 100	> 100	> 100	> 100	> 100	> 100	> 100	> 100	–	–
COc1cc(/C=C/c2ccc(OC)c(OC)c2OC)cc(OC)c1OC	–	72.3	60.9	44.9	54.9	51	55.3	> 100	51.2	–
